According to article PMC7281403, “Regulation of Tumor Immunity by Lysophosphatidic Acid” (Cancers, 2020):
Where two headings read alike, the source gives them in different places.

Experiments:
[1] = tested on: ATX; design: method as in PMID 34788605; details: TILs from melanoma patients and peripheral CD8+ T cells; cited from earlier work
[2] = biological target: ATX (Homo sapiens, UniProt Q13822); test: ATX activity, fluorescent FS-3 substrate assay; format: biochemical; details: IC50 ± SD
[3] = biological target: T1, LPAR5 (Homo sapiens, UniProt Q9H1C0); test: β-arrestin recruitment in LPAR5 expressing CHO-K1 cells; format: cell-based; design: expressed in transfected cells; details: LPA-induced β-arrestin recruitment, IC50 ± SD, NE = No effect, listed as TC-LPA5-4
Description: (§1) As an example, inhibition of LPAR5 in distinct cell types, such as CD8^+ T cells could help boost its immunosurveillance activity against cancer and impede metastasis. There is currently no FDA-approved LPA receptor antagonist for cancer therapy. […] We obtained both TC-LPA5-4 and UA-02-085 and tested for LPAR5 antagonism in two independent assays: Ca^2+ mobilization and β-Arrestin recruitment. […] AGP is present in several tissues and biological fluids including tumor ascites, atherosclerotic plaques, aqueous humor of the eye, and in platelet rich plasma. Thus, alkyl-LPA might have multiple actions in the TME as well as the cancer cells. […] We included as a positive control, Amgen35, a compound originally discovered by AMGEN investigators to be a LPAR2 antagonist with an IC50 of 0.8 µM [136]. The AMGEN publication predated the discovery of the LPAR4-6. […] Amgen35 has also been reported to have off-target effects in vivo [136]. […] The other putative LPAR5 antagonist compound, AS2727638, reported by Astellas Pharma in Japan, has only been characterized at LPAR1-3 but not at the other LPAR with high homology of LPAR5 [121].

[4] = biological target: T1, LPAR5; test: Ca2+ mobilization in LPAR5 expressing B103 cells; format: cell-based; design: expressed in transfected cells; host or cells: B103 cells
Description: as §1

[5] = design: method as in PMID 15172836; details: cited from earlier work
[6] = tested on: lymphocyte; design: method as in PMID 11024010, PMID 11160288; details: bell shape dose-response curve dropping off above 1 µM; cited from earlier work
[7] = biological target: T2, LPAR2 (Homo sapiens, UniProt Q9HBW0); design: method as in PMID 9525886; details: Jurkat T cells, LPAR2 plus SRE-driven luciferase reporter; cited from earlier work
[8] = tested on: LPAR1; design: method as in PMID 9525886; details: Jurkat T cells, LPAR1 plus SRE-driven luciferase reporter; cited from earlier work
[9] = tested on: Jurkat cell line; design: method as in PMID 7775587; details: cotreatment with PMA compared to PMA alone; cited from earlier work
[10] = biological target: T2, LPAR2; design: method as in PMID 11160288; details: LPA 10^−9–10^−6 M, anti-LPAR2 MAb 30–300 ng/mL; cited from earlier work
[11] = tested on: LPAR1; design: method as in PMID 11160288; details: cited from earlier work
[12] = tested on: CD8+ T cells; design: method as in PMID 31231367; details: cited from earlier work

T1 sequence (Q9H1C0 whole entry, species assumed): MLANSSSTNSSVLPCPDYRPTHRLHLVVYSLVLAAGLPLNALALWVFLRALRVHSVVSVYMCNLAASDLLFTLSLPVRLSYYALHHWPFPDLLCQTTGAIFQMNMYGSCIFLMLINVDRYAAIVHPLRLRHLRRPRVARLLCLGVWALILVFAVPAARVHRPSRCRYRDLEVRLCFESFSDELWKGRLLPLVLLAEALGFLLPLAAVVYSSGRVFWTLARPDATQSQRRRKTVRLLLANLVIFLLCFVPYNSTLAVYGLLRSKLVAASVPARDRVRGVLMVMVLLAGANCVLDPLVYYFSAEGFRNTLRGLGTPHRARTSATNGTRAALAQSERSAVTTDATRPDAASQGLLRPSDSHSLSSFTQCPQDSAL
T2 sequence (Q9HBW0 whole entry, species assumed): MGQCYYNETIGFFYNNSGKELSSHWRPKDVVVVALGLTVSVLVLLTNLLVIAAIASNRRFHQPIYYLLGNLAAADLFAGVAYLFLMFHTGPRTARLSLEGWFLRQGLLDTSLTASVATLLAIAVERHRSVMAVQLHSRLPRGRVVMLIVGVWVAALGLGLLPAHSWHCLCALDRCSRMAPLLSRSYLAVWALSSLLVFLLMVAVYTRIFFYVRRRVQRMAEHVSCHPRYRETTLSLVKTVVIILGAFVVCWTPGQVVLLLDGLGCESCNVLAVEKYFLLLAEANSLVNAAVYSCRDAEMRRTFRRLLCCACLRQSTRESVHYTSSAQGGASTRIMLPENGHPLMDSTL

Compound: O=C(CCN1CCN(C(=O)OCc2cc(Cl)cc(Cl)c2)CC1)c1ccc2[nH]c(=O)oc2c1 [PF-8380]
- effect of conditioned media from ATX-expressing tumor cells on T cell migration in presence of ATX inhibitor [1]: failed to inhibit the migration of T cells

Compound: COc1cccc(-n2nc(C(=O)O)cc2-c2ccc(C3CCCCC3)c(Cl)c2)c1 [TC-LPA-5]
- IC50 [2]: 7.1 ± 0.6 µM
- LPAR5 IC50 (β-arrestin) [3]: inactive
- LPAR5 IC50 (Ca^2+ Mobilization) ([4]; LPA-induced Ca2+ mobilization, LPAR5 expressing B103 cells, IC50 ± SD, NE = No effect, listed as TC-LPA5-4): inactive
- Inhibition of AGP-induced Ca^2+ mobilization ([4]; agonist alkyl glycerophosphate (AGP), unpublished): failed to inhibit

Compound: lysophosphatidic acid [LPA]
- critical micellar concentration ([5]; acyl group myristoyl): 1.850 mM
- critical micellar concentration ([5]; acyl group oleoyl): 0.346 mM
- critical micellar concentration ([5]; acyl group palmitoyl): 0.540 mM
- critical micellar concentration ([5]; acyl group stearoyl): 0.082 mM
- concentration of maximal efficiency in modulating lymphocyte responses [6]: 10^−10 to 10^−8 M
- LPA-dependent luciferase expression [7]: 20 fold over control
- LPA-dependent luciferase expression [8]: 5 fold over control
- increase in IL-2 secretion [9]: five-fold
- transmigration of LPAR2 Jurkat transfectants [10]: stimulated the transmigration
- migratory response in LPAR1 Jurkat transfectants [11]: neither LPA nor the anti-LPAR1 MAb induced a migratory response

Compound: C[C@H](NC(=O)CCc1nc2cccnc2n1Cc1ccc(OC(F)(F)F)cc1)c1ccc(Cl)cc1 [IOA-289]
- effect of conditioned media from ATX-expressing tumor cells on T cell migration in presence of ATX inhibitor [1]: failed to inhibit the migration of T cells

Compound: CCCCCCCCCCCCCCCCCCOP(O)(O)=S [OTP, octadecyl thiophosphate]
- in vitro tumor cell killing function ([12]; mouse and human CD8+ T cells): decreased in vitro tumor cell killing function
- granule exocytosis ([12]; stimulation of CD8+ T cells): impaired granule exocytosis
